From US11512069B2, “TLR7/8 antagonists and uses thereof” (Merck Patent GmbH, priority 2016, dated 2022)
pIC50: −log10 of the molar value.

Each molecule was assayed against T1, TLR7 (Homo sapiens, UniProt Q9NYK1) (assay: HEK Cell Assay (TLR7/NFKb HEK reporter cells, Steady-Glo)). Settings: compound 30 min, then R*48 agonist 5 hours, Steady-Glo readout, read-out: Potency.
T1 construct: expressed in transfected cells; host or cells: HEK cells carrying TLR7 and an NF-kB reporter read with Steady-Glo
T1 sequence (Q9NYK1 27-1049): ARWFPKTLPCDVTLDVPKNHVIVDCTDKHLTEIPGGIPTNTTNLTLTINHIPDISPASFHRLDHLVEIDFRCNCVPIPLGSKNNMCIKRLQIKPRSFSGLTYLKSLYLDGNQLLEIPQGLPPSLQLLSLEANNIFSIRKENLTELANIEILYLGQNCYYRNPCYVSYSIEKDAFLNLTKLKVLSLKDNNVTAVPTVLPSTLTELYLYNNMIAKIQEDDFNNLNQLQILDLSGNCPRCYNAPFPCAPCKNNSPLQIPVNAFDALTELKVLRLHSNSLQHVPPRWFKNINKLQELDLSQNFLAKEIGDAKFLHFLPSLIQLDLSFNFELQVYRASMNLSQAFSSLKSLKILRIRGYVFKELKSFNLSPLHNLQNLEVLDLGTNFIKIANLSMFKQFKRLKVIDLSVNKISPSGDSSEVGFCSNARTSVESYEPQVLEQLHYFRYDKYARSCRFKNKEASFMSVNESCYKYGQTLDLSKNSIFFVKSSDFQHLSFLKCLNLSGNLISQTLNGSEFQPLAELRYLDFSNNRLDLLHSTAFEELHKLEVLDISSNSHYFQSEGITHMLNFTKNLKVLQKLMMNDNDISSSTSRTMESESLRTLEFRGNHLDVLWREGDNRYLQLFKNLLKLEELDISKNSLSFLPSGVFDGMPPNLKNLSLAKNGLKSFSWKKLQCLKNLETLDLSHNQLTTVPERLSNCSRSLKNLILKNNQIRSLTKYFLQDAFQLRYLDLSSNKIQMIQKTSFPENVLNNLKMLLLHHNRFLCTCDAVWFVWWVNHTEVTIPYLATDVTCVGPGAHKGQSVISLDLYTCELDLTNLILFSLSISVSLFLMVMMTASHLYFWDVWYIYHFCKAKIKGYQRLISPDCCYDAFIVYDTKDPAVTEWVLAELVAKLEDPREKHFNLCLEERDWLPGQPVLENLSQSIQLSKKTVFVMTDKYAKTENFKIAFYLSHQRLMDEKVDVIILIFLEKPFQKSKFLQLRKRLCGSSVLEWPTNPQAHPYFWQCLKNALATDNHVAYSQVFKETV
Format: cell-based
Summary of the method: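 TLR7/NF-κB HEK reporter cells cultured 24 h, then pre-incubated 30 min with compound before adding R*48 agonist. Luciferase read by Steady-Glo luminescence after 5 h.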

SMILES | pIC50
Cc1ccc([C@@H]2C[C@H](C)CN(C(=O)CC3CCN(C)CC3)C2)c2cccnc12 [Compound 82, 1-[(3S,5S)-3-Methyl-5-(8-methyl-quinolin-5-yl)-piperidin-1-yl]-2-(1-methyl-piperidin-4-yl)-ethanone] | 4.70 to 6.00
Cc1ccc([C@H]2C[C@H](C)CN(C(=O)CC3CCN(C)CC3)C2)c2cccnc12 [Compound 83, 1-[(3S,5R)-3-Methyl-5-(8-methyl-quinolin-5-yl)-piperidin-1-yl]-2-(1-methyl-piperidin-4-yl)-ethanone] | > 6.00
Cc1ccc([C@H]2C[C@@H](C)CN(C(=O)CC3C4CC3CN(C)C4)C2)c2cccnc12 (stereo partly drawn) [Compound 84, 2-(3-Methyl-3-aza-bicyclo [3.1.1]hept-6-yl)-1-[(3R,5R)-3-methyl-5-(8-methyl-quinolin-5-yl)-piperidin-1-yl]-ethanone] | > 6.00
C[C@@H]1C[C@H](c2cc(F)c(C#N)c3ncccc23)CN(C(=O)CC2CCN(C)CC2)C1 [Compound 85, 7-Fluoro-5-{(3R,5R)-5-methyl-1-[2-(1-methyl-piperidin-4-yl)-acetyl]-piperidin-3-yl}-quinoline-8-carbonitrile] | 4.70 to 6.00
COc1ccc([C@@H]2C[C@@H](C)CN(C(=O)CC3CCN(C)CC3)C2)c2cccnc12 [Compound 86, 1-[(3S,5R)-3-(8-Methoxy-quinolin-5-yl)-5-methyl-piperidin-1-yl]-2-(1-methyl-piperidin-4-yl)-ethanone] | > 6.00
COc1ccc([C@H]2C[C@@H](C)CN(C(=O)CC3CCN(C)CC3)C2)c2cccnc12 [Compound 87, 1-[(3R,5R)-3-(8-Methoxy-quinolin-5-yl)-5-methyl-piperidin-1-yl]-2-(1-methyl-piperidin-4-yl)-ethanone] | > 6.00
COc1ncc([C@@H]2C[C@@H](C)CN(C(=O)CC3CCN(C)CC3)C2)c2cccnc12 [Compound 88, 1-[(3S,5R)-3-(8-Methoxy-[1,7]naphthyridin-5-yl)-5-methyl-piperidin-1-yl]-2-(1-methyl-piperidin-4-yl)-ethanone] | 4.70 to 6.00
COc1ncc([C@H]2C[C@@H](C)CN(C(=O)CC3CCN(C)CC3)C2)c2cccnc12 [Compound 89, 1-[(3R,5R)-3-(8-Methoxy-[1,7]naphthyridin-5-yl)-5-methyl-piperidin-1-yl]-2-(1-methyl-piperidin-4-yl)-ethanone] | 4.70 to 6.00
Cc1c(F)cc([C@H]2C[C@@H](C)CN(C(=O)CC3CCN(C)CC3)C2)c2cccnc12 [Compound 90, 1-[(3R,5R)-3-(7-Fluoro-8-methyl-quinolin-5-yl)-5-methyl-piperidin-1-yl]-2-(1-methyl-piperidin-4-yl)-ethanone] | > 6.00
C[C@@H]1C[C@H](c2ccc(C#N)c3ncccc23)CN(C(=O)C[C@H]2CCN(C)CC2(F)F)C1 [Compound 91, 5-{(3R,5R)-1-[2-((R)-3,3-Difluoro-1-methyl-piperidin-4-yl)-acetyl]-5-methyl-piperidin-3-yl}-quinoline-8-carbonitrile] | 4.70 to 6.00
C[C@@H]1C[C@H](c2ccc(C#N)c3ncccc23)CN(C(=O)C[C@@H]2CCN(C)CC2(F)F)C1 [Compound 92, 5-((3R,5R)-1-[2-((S)-3,3-Difluoro-1-methyl-piperidin-4-yl)-acetyl]-5-methyl-piperidin-3-yl}-quinoline-8-carbonitrile] | > 6.00
C[C@@H]1C[C@H](c2ccc(C#N)c3ncccc23)CN(C(=O)CC2C3CC2CN(C)C3)C1 (stereo partly drawn) [Compound 93, 5-[(3R,5R)-5-methyl-1-[2-(3-methyl-3-azabicyclo[3.1.1]heptan-6-yl)acetyl]-3-piperidyl]quinoline-8-carbonitrile] | > 6.00
Cc1ncc([C@@H]2C[C@@H](C)CN(C(=O)CC3CCN(C)CC3)C2)c2cccnc12 [Compound 94, 1-[(3R,5S)-3-Methyl-5-(8-methyl-[1,7]naphthyridin-5-yl)-piperidin-1-yl]-2-(1-methyl-piperidin-4-yl)-ethanone] | 4.70 to 6.00
Cc1ncc([C@H]2C[C@@H](C)CN(C(=O)CC3CCN(C)CC3)C2)c2cccnc12 [Compound 95, 1-[(3R,5R)-3-Methyl-5-(8-methyl-[1,7]naphthyridin-5-yl)-piperidin-1-yl]-2-(1-methyl-piperidin-4-yl)-ethanone] | 4.70 to 6.00
C[C@@H]1C[C@@H](c2ccc(C#N)c3ncccc23)CN(C(=O)CN2CCN(C)CC2)C1 [Compound 96, 5-{(3S,5R)-5-Methyl-1-[2-(4-methyl-piperazin-1-yl)-acetyl]-piperidin-3-yl}-quinoline-8-carbonitrile] | 4.70 to 6.00
C[C@@H]1C[C@H](c2ccc(C#N)c3ncccc23)CN(C(=O)CN2CCN(C)CC2)C1 [Compound 97, 5-((3R,5R)-5-Methyl-1-[2-(4-methyl-piperazin-1-yl)-acetyl]-piperidin-3-yl}-quinoline-8-carbonitrile] | > 6.00
C[C@@H]1C[C@H](c2ccc(C#N)c3ncccc23)CN(C(=O)C2(N)CC2)C1 [Compound 98, 5-[(3R,5R)-1-(1-Amino-cyclopropanecarbonyl)-5-methyl-piperidin-3-yl]-quinoline-8-carbonitrile] | < 4.70
C[C@@H]1C[C@@H](c2ccc(C#N)c3ncccc23)CN(C(=O)C2CC(N)C2)C1 (stereo partly drawn) [Compound 99, 5-[(3S,5R)-1-(3-aminocyclobutanecarbonyl)-5-methyl-3-piperidyl]quinoline-8-carbonitrile] | 4.70 to 6.00
C[C@@H]1C[C@H](c2ccc(C#N)c3ncccc23)CN(C(=O)C2CC(N)C2)C1 (stereo partly drawn) [Compound 100, 5-[(3R,5R)-1-(3-aminocyclobutanecarbonyl)-5-methyl-3-piperidyl]quinoline-8-carbonitrile] | > 6.00
C[C@H]1C[C@H](c2ccc(C#N)c3nccnc23)CN(C(=O)CC2CCN(C)CC2)C1 [Compound 101, 8-{(3R,5S)-5-Methyl-1-[2-(1-methyl-piperidin-4-yl)-acetyl]-piperidin-3-yl}-quinoxaline-5-carbonitrile] | < 4.70
C[C@H]1C[C@@H](c2ccc(C#N)c3nccnc23)CN(C(=O)CC2CCN(C)CC2)C1 [Compound 102, 8-{(3S,5S)-5-Methyl-1-[2-(1-methyl-piperidin-4-yl)-acetyl]-piperidin-3-yl}-quinoxaline-5-carbonitrile] | > 6.00
C[C@@H]1C[C@H](c2ccc(OC(F)(F)F)c3ncccc23)CN(C(=O)CC2CCN(C)CC2)C1 [Compound 103, 2-(1-Methyl-piperidin-4-yl)-1-[(3R,5R)-3-methyl-5-(8-trifluoromethoxy-quinolin-5-yl)-piperidin-1-yl]-ethanone] | 4.70 to 6.00
C[C@@H]1C[C@@H](c2ccc(OC(F)(F)F)c3ncccc23)CN(C(=O)CN2CCN(C)CC2)C1 [Compound 104, 2-(4-Methyl-piperazin-1-yl)-1-[(3R,5S)-3-methyl-5-(8-trifluoromethoxy-quinolin-5-yl)-piperidin-1-yl]-ethanone] | < 4.70
C[C@@H]1C[C@H](c2ccc(OC(F)(F)F)c3ncccc23)CN(C(=O)CN2CCN(C)CC2)C1 [Compound 105, 2-(4-Methyl-piperazin-1-yl)-1-[(3R,5R)-3-methyl-5-(8-trifluoromethoxy-quinolin-5-yl)-piperidin-1-yl]-ethanone] | 4.70 to 6.00
C[C@@H]1C[C@H](c2ccc(C#N)c3ncccc23)CN(Cc2cnn(C)c2)C1 [Compound 106, 5-[(3R,5R)-5-methyl-1-[(1-methylpyrazol-4-yl)methyl]-3-piperidyl]quinoline-8-carbonitrile] | < 4.70
CC1CC(c2ccc(C#N)c3ncccc23)CN(C(=O)NC2CCN(C)CC2)C1 (centres unmarked) [Compound 109, 3-(8-Cyano-quinolin-5-yl)-5-methyl-piperidine-1-carboxylic acid (1-methyl-piperidin-4-yl)-amide] | > 6.00
CC1CC(c2ccc(C#N)c3ncccc23)CN(C(=O)NCC2CC(F)(F)C2)C1 (centres unmarked) [Compound 110, 3-(8-Cyano-quinolin-5-yl)-5-methyl-piperidine-1-carboxylic acid (3,3-difluoro-cyclobutylmethyl)-amide] | 4.70 to 6.00
C[C@@H]1C[C@H](c2ccc(OC(F)(F)F)c3ncccc23)CN(C(=O)NC2CCN(C)CC2)C1 [Compound 112, (3R,5R)-3-Methyl-5-(8-trifluoromethoxy-quinolin-5-yl)-piperidine-1-carboxylic acid (1-methyl-piperidin-4-yl)-amide] | > 6.00
C[C@@H]1C[C@H](c2ccc(C#N)c3ncccc23)CN(C(=O)NC2CCN(C)CC2)C1 [Compound 113, (3R,5R)-3-(8-Cyano-quinolin-5-yl)-5-methyl-piperidine-1-carboxylic acid (1-methyl-piperidin-4-yl)-amid] | > 6.00
